Earlier results, collected in patent US10729782B2, “Antibody-drug conjugate produced by binding through linker having hydrophilic structure” (DAIICHI SANKYO COMPANY, LIMITED, priority 2012, dated 2020).

Experiments:
[1] = system: human tumor subcutaneously transplanted mouse model; settings: cited from earlier work
topoisomerase I = biological target: T1, topoisomerase I (Homo sapiens, UniProt P11387); settings: compared with SN-38 and topotecan; cited from earlier work
T1 sequence (P11387 1-765): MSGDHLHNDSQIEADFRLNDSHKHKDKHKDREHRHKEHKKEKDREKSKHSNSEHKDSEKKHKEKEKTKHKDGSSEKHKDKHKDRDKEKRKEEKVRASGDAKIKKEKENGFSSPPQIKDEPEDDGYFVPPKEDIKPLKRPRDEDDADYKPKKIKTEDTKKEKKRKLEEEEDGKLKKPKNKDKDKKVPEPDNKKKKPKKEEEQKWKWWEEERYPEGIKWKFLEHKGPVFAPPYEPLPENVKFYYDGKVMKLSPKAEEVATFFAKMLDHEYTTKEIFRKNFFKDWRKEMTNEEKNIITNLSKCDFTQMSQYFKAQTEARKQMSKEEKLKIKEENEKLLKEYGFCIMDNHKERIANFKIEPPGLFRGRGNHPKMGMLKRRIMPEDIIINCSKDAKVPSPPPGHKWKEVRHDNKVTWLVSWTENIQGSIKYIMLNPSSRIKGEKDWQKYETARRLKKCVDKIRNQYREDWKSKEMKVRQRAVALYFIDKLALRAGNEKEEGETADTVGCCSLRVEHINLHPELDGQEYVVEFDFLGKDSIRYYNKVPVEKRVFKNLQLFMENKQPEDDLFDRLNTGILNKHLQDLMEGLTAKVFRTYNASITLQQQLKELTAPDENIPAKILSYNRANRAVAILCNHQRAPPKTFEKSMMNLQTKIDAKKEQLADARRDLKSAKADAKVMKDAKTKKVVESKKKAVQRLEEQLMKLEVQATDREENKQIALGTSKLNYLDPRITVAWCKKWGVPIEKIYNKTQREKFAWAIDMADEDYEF

various cancer cells = settings: against various cancer cells, compared with SN-38 and topotecan; cited from earlier work

CC[C@@]1(O)C(=O)OCc2c1cc1n(c2=O)Cc2c-1nc1cc(F)c(C)c3c1c2[C@@H](N)CC3 [exatecan, (1S,9S)-1-amino-9-ethyl-5-fluoro-2,3-dihydro-9-hydroxy-4-methyl-1H,12H-benzo[de]pyrano[3′,4′:6,7]indolizino[1,2-b]quinolin-10,13(9H,15H)-dione]
antitumor effect [1]: potent antitumor effect | inhibitory activity on topoisomerase I (topoisomerase I): higher than SN-38 | in vitro cytocidal activity (various cancer cells): higher in vitro cytocidal activity
